The supplement of paper PMC13207355

Tests used:
Settings in all cases: exposure time: 72 h
E34 [1] = patient-derived glioblastoma stem cells of proneural subtype; test: phenotypic distance (Euclidean, principal components) from DMSO controls (arbitrary units); higher = stronger morphological change
E21 [2] = patient-derived glioblastoma stem cells of mesenchymal subtype; test: as above
FT3469 [3] = normal neural stem cell line; test: as above
E57 [4] = patient-derived glioblastoma stem cells of mesenchymal subtype; test: as above
E31 [5] = patient-derived glioblastoma stem cells of proneural subtype; test: as above
E13 [6] = patient-derived glioblastoma stem cells of classical subtype; test: as above
E28 [7] = patient-derived glioblastoma stem cells of classical subtype; test: as above
E34 [8] = test: surviving fraction (nuclei count normalised to DMSO); higher = more cells surviving (less toxic)
E21 [9] = test: as above
FT3469 [10] = test: as above
E57 [11] = test: as above
E31 [12] = test: as above
E13 [13] = test: as above
E28 [14] = test: as above
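Throughout, for phenotypic distance (Euclidean, principal components) from DMSO controls: cell Painting imaging in 384-well plates, CellProfiler features reduced to at least 20 principal components, Euclidean distance versus same-plate DMSO vehicle wells (0.1% v/v), median over six images per well.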
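Throughout, for surviving fraction (nuclei count normalised to DMSO): nuclei counted by high-content imaging of Hoechst-stained cells in laminin-coated 384-well plates, relative to 0.1% DMSO vehicle wells, with staurosporine as cell-death control.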

Cc1ccc(S(=O)(=O)/C=C/C#N)cc1 [Bay 11-7082]
Settings | phenotypic distance | surviving fraction
E13 [6], 4.1 nM | 0.928 | –
E13 [6], 12.3 nM | 0.789 | –
E13 [6], 37 nM | 0.388 | –
E13 [6], 111.1 nM | 0.428 | –
E13 [6], 333.3 nM | 0.7 | –
E13 [6], 1000 nM | 2.5 | –
E13 [6], 3000 nM | 13.2 | –
E13 [13], 4.1 nM | – | 0.964
E13 [13], 12.3 nM | – | 1.06
E13 [13], 37 nM | – | 1.03
E13 [13], 111.1 nM | – | 0.988
E13 [13], 333.3 nM | – | 0.976
E13 [13], 1000 nM | – | 0.692
E13 [13], 3000 nM | – | 0.0324
E21 [2], 4.1 nM | 0.363 | –
E21 [2], 12.3 nM | 0.689 | –
E21 [2], 37 nM | 0.461 | –
E21 [2], 111.1 nM | 0.482 | –
E21 [2], 333.3 nM | 0.803 | –
E21 [2], 1000 nM | 2.09 | –
E21 [2], 3000 nM | 18.7 | –
E21 [9], 4.1 nM | – | 1.01
E21 [9], 12.3 nM | – | 1.06
E21 [9], 37 nM | – | 0.902
E21 [9], 111.1 nM | – | 1
E21 [9], 333.3 nM | – | 0.952
E21 [9], 1000 nM | – | 0.67
E21 [9], 3000 nM | – | 0.000991
E28 [7], 4.1 nM | 0.601 | –
E28 [7], 12.3 nM | 0.591 | –
E28 [7], 37 nM | 0.652 | –
E28 [7], 111.1 nM | 1.11 | –
E28 [7], 333.3 nM | 1.33 | –
E28 [7], 1000 nM | 1.83 | –
E28 [7], 3000 nM | 16.4 | –
E28 [14], 4.1 nM | – | 1.16
E28 [14], 12.3 nM | – | 1.07
E28 [14], 37 nM | – | 1.02
E28 [14], 111.1 nM | – | 0.918
E28 [14], 333.3 nM | – | 0.805
E28 [14], 1000 nM | – | 0.523
E28 [14], 3000 nM | – | 0.00427
E31 [5], 4.1 nM | 0.798 | –
E31 [5], 12.3 nM | 0.511 | –
E31 [5], 37 nM | 0.513 | –
E31 [5], 111.1 nM | 0.736 | –
E31 [5], 333.3 nM | 0.957 | –
E31 [5], 1000 nM | 1.61 | –
E31 [5], 3000 nM | 15.2 | –
E31 [12], 4.1 nM | – | 0.981
E31 [12], 12.3 nM | – | 1.12
E31 [12], 37 nM | – | 1.07
E31 [12], 111.1 nM | – | 0.915
E31 [12], 333.3 nM | – | 0.833
E31 [12], 1000 nM | – | 0.574
E31 [12], 3000 nM | – | 0.00325
E34 [1], 4.1 nM | 1.17 | –
E34 [1], 12.3 nM | 0.478 | –
E34 [1], 37 nM | 0.466 | –
E34 [1], 111.1 nM | 0.813 | –
E34 [1], 333.3 nM | 0.985 | –
E34 [1], 1000 nM | 0.91 | –
E34 [1], 3000 nM | 9.42 | –
E34 [8], 4.1 nM | – | 1.17
E34 [8], 12.3 nM | – | 0.972
E34 [8], 37 nM | – | 1.03
E34 [8], 111.1 nM | – | 0.881
E34 [8], 333.3 nM | – | 1.04
E34 [8], 1000 nM | – | 0.841
E34 [8], 3000 nM | – | 0.208
E57 [4], 4.1 nM | 0.529 | –
E57 [4], 12.3 nM | 0.37 | –
E57 [4], 37 nM | 0.668 | –
E57 [4], 111.1 nM | 0.846 | –
E57 [4], 333.3 nM | 1.16 | –
E57 [4], 1000 nM | 2.8 | –
E57 [4], 3000 nM | 8.7 | –
E57 [11], 4.1 nM | – | 0.965
E57 [11], 12.3 nM | – | 0.935
E57 [11], 37 nM | – | 0.978
E57 [11], 111.1 nM | – | 0.894
E57 [11], 333.3 nM | – | 0.905
E57 [11], 1000 nM | – | 0.712
E57 [11], 3000 nM | – | 0.107
FT3469 [3], 4.1 nM | 0.889 | –
FT3469 [3], 12.3 nM | 0.728 | –
FT3469 [3], 37 nM | 0.551 | –
FT3469 [3], 111.1 nM | 0.796 | –
FT3469 [3], 333.3 nM | 1.04 | –
FT3469 [3], 1000 nM | 2.13 | –
FT3469 [3], 3000 nM | 17.6 | –
FT3469 [10], 4.1 nM | – | 0.987
FT3469 [10], 12.3 nM | – | 0.984
FT3469 [10], 37 nM | – | 0.932
FT3469 [10], 111.1 nM | – | 0.814
FT3469 [10], 333.3 nM | – | 0.809
FT3469 [10], 1000 nM | – | 0.714
FT3469 [10], 3000 nM | – | 0.0259
